Laboratory results: PMC8921294, “Inhibition of mitochondrial LonP1 protease by allosteric blockade of ATP binding and hydrolysis via CDDO and its derivatives” (The Journal of Biological Chemistry, 2022)
Several values for one entry are separate records, joined by “and”; a condition that tells them apart may be missing. Equal values may be shown once.

Legend:
Assay type in all cases: biochemical
[1] = target: T1, Human mitochondrial LonP1 (wild-type) ATPase (Homo sapiens, UniProt P36776); assay: Endpoint ATPase assay (ADP-Glo), wild-type LonP1; conditions: end-point ATPase assay, 1 mM ATP, 60 min preincubation 25 °C; Table 1
T1 construct: hexa-histidine (N); made in house; host or cells: Rosetta 2 E. coli
T1 sequence (P36776 68-959): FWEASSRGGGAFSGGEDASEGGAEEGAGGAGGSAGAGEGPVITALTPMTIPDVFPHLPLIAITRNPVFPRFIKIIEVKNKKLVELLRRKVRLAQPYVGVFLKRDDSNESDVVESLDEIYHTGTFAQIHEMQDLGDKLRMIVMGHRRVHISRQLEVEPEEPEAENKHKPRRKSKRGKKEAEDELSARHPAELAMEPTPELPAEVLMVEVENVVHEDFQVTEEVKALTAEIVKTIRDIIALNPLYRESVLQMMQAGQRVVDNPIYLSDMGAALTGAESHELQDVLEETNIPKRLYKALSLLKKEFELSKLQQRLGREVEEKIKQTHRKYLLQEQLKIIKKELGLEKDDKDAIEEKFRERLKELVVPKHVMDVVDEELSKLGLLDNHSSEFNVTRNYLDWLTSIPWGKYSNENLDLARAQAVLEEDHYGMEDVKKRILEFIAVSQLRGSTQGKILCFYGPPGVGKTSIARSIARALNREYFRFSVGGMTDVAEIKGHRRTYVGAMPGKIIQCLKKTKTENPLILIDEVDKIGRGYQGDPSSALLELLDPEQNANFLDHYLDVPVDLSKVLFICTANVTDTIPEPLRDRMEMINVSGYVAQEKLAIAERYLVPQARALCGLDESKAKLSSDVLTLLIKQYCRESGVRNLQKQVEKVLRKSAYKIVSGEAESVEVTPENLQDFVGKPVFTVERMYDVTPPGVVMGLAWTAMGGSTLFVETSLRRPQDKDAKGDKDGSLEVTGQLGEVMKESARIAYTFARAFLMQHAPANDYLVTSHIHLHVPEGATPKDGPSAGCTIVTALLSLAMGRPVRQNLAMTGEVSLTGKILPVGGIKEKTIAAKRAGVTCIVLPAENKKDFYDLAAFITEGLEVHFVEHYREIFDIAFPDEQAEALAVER
Method: ADP-Glo (Promega) assays were performed according to the manufacturer's protocols. Purified wild-type or mutant LonP1 (400 nM monomer), the 26S proteasome (3 nM), or no enzyme controls were preincubated in 96-well plates (60 min, 25 °C) with ten different concentrations of CDDO and its derivatives, TP-82, enoxolone (5 μM) or DMSO vehicle control in buffer (40 mM Tris-HCl (pH 7.5), 20 mM MgCl2, 0.1 mg/ml BSA and 5% DMSO). The 26S and 20S proteasome were also assayed at 0, 0.75, 1.5, 3, 6, and 12 nM in the absence of CDDO derivatives. UltraPure ATP (1 mM final) was added, and reactions (50 μl final) were incubated for 60 min at 25 °C, then 5 μl was transferred in quadruplicate to a 384-well plate. Assay reagents were used to quench further ATPase activity and generate luminescence signals proportional to the concentration of ADP formed. Background (no enzyme control) luminescence values were subtracted, and resultant values were reported as a percentage of the no drug control (100%). Data were fit to four-parameter dose–response curves using GraphPad Prism. The error bars represent the standard deviation (SD) of four replicate reactions from at least three independent experiments.

[2] = target: T2, Human mitochondrial LonP1 (LonP1^WT) ATPase (Homo sapiens, UniProt P36776); assay: Continuous NADH-coupled ATPase assay, wild-type LonP1; conditions: for Modality (mechanism of LonP1 ATPase inhibition) / Ki / αKi / α: continuous ATPase assay; for Modality (mechanism of LonP1 ATPase inhibition): ATP titrated; for Ki: LonP1 400 nM, 30 min preincubation; for αKi: dissociation constant for ES complex; for α: relates αKi to Ki
T2 construct: hexa-histidine (N); made in house; host or cells: Rosetta 2 E. coli
T2 sequence (P36776 68-959): T1 sequence (P36776 68-959)
Method: ATPase reactions (200 μl total) were performed in 96-well plates at room temperature. LonP1 (400 nM monomer) was preincubated with DMSO (1–2%) vehicle control or CDDO derivatives in buffer (50 mM HEPES-KOH pH 7.5, 5 mM magnesium acetate, 75 mM potassium acetate) for 30 to 45 min at room temperature or 30 °C. The reactions were initiated by the addition of phosphoenolpyruvate (PEP, 3 mM), NADH (300 μM), pyruvate kinase and lactate dehydrogenase (PK-LDH) (12–20 U/ml), and ATP concentrations as indicated. The change in NADH absorbance at 340 nm was monitored in Spectramax plate reader for 5 min to obtain reaction velocities. Data were fit to the Michaelis–Menten curve using GraphPad Prism 5, and the error bars represent the standard deviation (SD) of four replicate reactions from at least three independent experiments.

[3] = target: T3, Human LonP1 protease (Homo sapiens, UniProt P36776); assay: FITC-casein protease assay (ATP-dependent proteolysis); conditions: for Inhibition of LonP1-mediated degradation of FITC-casein: 30 min preincubation at 30 °C, ATP 4 mM; for Preincubation time after which ATP-dependent proteolysis is inhibited: preincubation at 30 °C
T3 construct: hexa-histidine (N); made in house; host or cells: Rosetta 2 E. coli
T3 sequence (P36776 68-959): T1 sequence (P36776 68-959)
Method: Human LonP1 (1.0 μM monomer) was preincubated with CDDO derivatives, TP-82, enoxolone (5 μM) or DMSO vehicle control (1%) in buffer (150 mM NaCl, 50 mM Hepes-KOH pH 8.0, 10 mM MgCl2, 0.1 mg/ml BSA) for 30 min at 30 °C. Reactions were initiated by the addition of FITC-casein (0.1 mg/ml) and ATP (4.0 mM) and incubated at 37 °C. The kinetics of FITC-casein degradation was measured by the increase in relative fluorescence units (RFU) at 490–525 nm wavelength at 37 °C using a Spectramax or Biotek Synergy plate reader. For endpoint assays, aliquots of reactions incubated at 37 °C were removed at indicated time points and terminated by adding 5X reducing sample buffer (RSB). The decrease of intact FITC-casein was determined by SDS-PAGE followed by visualization using FluorChem or Chemi-Doc systems.
Reactions (500 μl) containing LonP1 (1.0 μM monomer) in buffer (150 mM NaCl, 50 mM Hepes-KOH pH 8.0, 10 mM MgCl2) were preincubated with CDDO-Me (10 μM) or DMSO (1%) for 60 min at 30 °C. After this period, respective aliquots (50 μl) were removed and assayed for FITC-casein degradation to confirm inhibition by CDDO-Me. The remaining 450 μl reaction was transferred to a Slide-A-Lyzer (100 kDa MWCO) and dialyzed against 500 ml Buffer K (50 mM Hepes KOH, pH 8.0, 150 mM NaCl, 10 mM MgOAc2, 20% glycerol) for 24 h at 4 °C. After this period, the protein concentration was measured to determine protein recovery and the protease activity of LonP1, which had been preincubated with and without CDDO-Me was measured using the FITC-casein degradation assay.

SMILES	IC50 [1] [µM]	Modality (mechanism of LonP1 ATPase inhibition) [2]	Ki [2] [µM]	Ki relative to the Ki of other CDDO derivatives ([2]; fold higher) [fold]	Inhibition of LonP1-mediated degradation of FITC-casein [3]	Preincubation time after which ATP-dependent proteolysis is inhibited [3] [min]	αKi [2]	α [2]	Reversibility: proteolytic activity after dialysis ([3]; 10 μM, dialysis at 4 °C for 24 h)	Degradation of FITC-casein before dialysis ([3]; 10 μM, preincubation 60 min at 30 °C)
CC1(C)CC[C@]2(C(=O)OC(=O)[C@]34CCC(C)(C)C[C@H]3[C@H]3C(=O)C=C5[C@@]6(C)C=C(C#N)C(=O)C(C)(C)[C@@H]6CC[C@@]5(C)[C@]3(C)CC4)CC[C@]3(C)[C@H](C(=O)C=C4[C@@]5(C)C=C(C#N)C(=O)C(C)(C)[C@@H]5CC[C@]43C)[C@@H]2C1 [CDDO-anhydride]	19.4 ± 3.3	competitive	9.5 ± 1.4	~3.5	–	–	–	–	–	–
CC1(C)CC[C@]2(C(=O)O)CC[C@]3(C)[C@H](C(=O)C=C4[C@@]5(C)C=C(C#N)C(=O)C(C)(C)[C@@H]5CC[C@]43C)[C@@H]2C1 [CDDO, 2-cyano-3,12-dioxooleana-1,9(11)-dien-28-oic acid]	13 ± 6	noncompetitive	2.6 ± 0.5	–	inhibit	≥ 20	14 ± 2 µM and 14.0 ± 2.0 µM	5.4	–	–
COC(=O)[C@]12CCC(C)(C)C[C@H]1[C@H]1C(=O)C=C3[C@@]4(C)C=C(C#N)C(=O)C(C)(C)[C@@H]4CC[C@@]3(C)[C@]1(C)CC2 [CDDO-Me]	1.9 ± 0.3	noncompetitive	0.8 ± 0.1	–	inhibit	5	3.3 ± 1.0 µM	4.3	restored proteolytic activity	completely block
